Numbers after ± are expanded uncertainties.
Legend:
[1] = Molar enthalpy of transition or fusion; settings: Crystal; DSC
[2] = Crystal; DTA

Molar enthalpy of transition or fusion [1]: 4.76 ± 0.217 kcal/mol | Normal melting temperature [2]: 55.07 ± 1.1 °C
SMILES: O=Cc1cccc([N+](=O)[O-])c1 [3-nitrobenzaldehyde]

Reference: the NIST ThermoML archive (doi:10.1016/j.jct.2016.10.040)
